Laboratory results from ChEMBL document CHEMBL4699524 (Bioorg Med Chem Lett, 2020).

Key:
Plasmodium falciparum [1] = test: Antiplasmodial activity against chloroquine-sensitive Plasmodium falciparum NF54 by LDH assay; assay type: functional, organism-based
Plasmodium falciparum [2] = test: Antiplasmodial activity against chloroquine-resistant Plasmodium falciparum Dd2 by LDH assay; assay type: functional, organism-based
CHO = test: Cytotoxicity against CHO cells assessed as reduction in cell viability by MTT assay; assay type: cell-based; details: Cricetulus griseus
Leishmania donovani [3] = test: Antileishmanial activity against Leishmania donovani 1S promastigotes assessed as inhibition of parasite growth incubated for 72 hrs by resazurin dye based assay; assay type: functional, organism-based
Leishmania donovani [4] = test: Antileishmanial activity against Leishmania donovani 9515 promastigotes assessed as inhibition of parasite growth incubated for 72 hrs by resazurin dye based assay; assay type: functional, organism-based; details: Leishmania donovani, 9515, 72 h
Leishmania major = test: Antileishmanial activity against Leishmania major IR-173 promastigotes assessed as inhibition of parasite growth incubated for 72 hrs by resazurin dye based assay; assay type: functional, organism-based; details: IR-173, 72 h
[5] = Selectivity index, ratio of IC50 for CHO cells to IC50 for antileishmanial activity against Leishmania donovani 9515 by resazurin dye based assay; assay type: toxicity; details: hamster, read-out: Ratio IC50
[6] = Selectivity index, ratio of IC50 for CHO cells to IC50 for antileishmanial activity against Leishmania donovani 1S by resazurin dye based assay; assay type: toxicity; details: hamster, read-out: Ratio IC50
in vitro = details: hamster, CHO cells
Leishmania donovani [7] = test: Potency index, ratio of dihydroartemisinin IC50 to test compound IC50 for antileishmanial activity against Leishmania donovani 1S promastigotes incubated for 72 hrs by resazurin dye based assay; assay type: functional
Leishmania donovani [8] = test: Potency index, ratio of dihydroartemisinin IC50 to test compound IC50 for antileishmanial activity against Leishmania donovani 9515 promastigotes incubated for 72 hrs by resazurin dye based assay; assay type: functional
Leishmania donovani [9] = test: Potency index, ratio of artemether IC50 to test compound IC50 for antileishmanial activity against Leishmania donovani 1S promastigotes incubated for 72 hrs by resazurin dye based assay; assay type: functional
Leishmania donovani [10] = test: Potency index, ratio of artemether IC50 to test compound IC50 for antileishmanial activity against Leishmania donovani 9515 promastigotes incubated for 72 hrs by resazurin dye based assay; assay type: functional
Leishmania donovani [11] = test: Potency index, ratio of artesunate IC50 to test compound IC50 for antileishmanial activity against Leishmania donovani 1S promastigotes incubated for 72 hrs by resazurin dye based assay; assay type: functional
Leishmania donovani [12] = test: Potency index, ratio of artesunate IC50 to test compound IC50 for antileishmanial activity against Leishmania donovani 9515 promastigotes incubated for 72 hrs by resazurin dye based assay; assay type: functional

Compound | IC50 (Plasmodium falciparum [1]) | IC50 (Plasmodium falciparum [2]) | IC50 (CHO) | IC50 (Leishmania donovani [3]) | IC50 (Leishmania donovani [4]) | IC50 (Leishmania major) | selectivity ratio [5] | selectivity ratio [6] | selectivity ratio (in vitro) | Ratio IC50 (Leishmania donovani [7]) | Ratio IC50 (Leishmania donovani [8]) | Ratio IC50 (Leishmania donovani [9]) | Ratio IC50 (Leishmania donovani [10]) | Ratio IC50 (Leishmania donovani [11]) | Ratio IC50 (Leishmania donovani [12])
COc1ccc2nc3cc(Cl)ccc3c(N3CCN(CCO[C@H]4O[C@@H]5O[C@@]6(C)CC[C@H]7[C@H](C)CC[C@@H]([C@H]4C)[C@@]57OO6)CC3)c2c1 | 0.267 µM | 0.43 µM | > 100 µM | 54.1 µM | 32.1 µM | 4.8 µM | 3 | 5 | 33 | – | – | – | – | – | –
C[C@@H]1CC[C@H]2C(C)(COC(=O)c3ccco3)O[C@@H]3O[C@@]4(C)CC[C@@H]1[C@]32OO4 (stereo partly drawn) | 0.0092 µM | 0.0031 µM | > 100 µM | > 100 µM | > 100 µM | > 100 µM | 1 | – | 1 | – | – | – | – | – | –
CC[C@H]1CN2CCc3cc(OC)c(OC)cc3[C@@H]2C[C@@H]1C[C@H]1NCCc2cc(OC)c(OC)cc21 [EMETINE] | – | – | 0.29 µM | – | – | – | – | – | – | – | – | – | – | – | –
Cc1csc(C(=O)OCC2(C)O[C@@H]3O[C@@]4(C)CC[C@H]5[C@H](C)CC[C@@H]2[C@@]35OO4)c1 (stereo partly drawn) | 0.0072 µM | 0.0071 µM | > 100 µM | 5.61 µM | 6.48 µM | 4.26 µM | 18 | > 15 | 24 | 30 | 30 | 30 | 30 | 30 | 30
COc1ccc2nc3cc(Cl)ccc3c(NCCN)c2c1 | 0.0139 µM | 0.0807 µM | 1 µM | 2.26 µM | 2.81 µM | 2.07 µM | 0.4 | 0.4 | 0.5 | – | – | – | – | – | –
COc1ccc2nc3cc(Cl)ccc3c(N3CCN(CCO[C@H]4O[C@@H]5O[C@@]6(C)CC[C@H]7[C@H](C)CC[C@@H]([C@H]4C)[C@@]57OO6)C(C)C3)c2c1 (stereo partly drawn) | 0.017 µM | 0.0413 µM | 6 µM | 2.38 µM | 1.59 µM | 0.69 µM | 5 | 4 | 9 | – | – | – | – | – | –
C[C@@H]1CC[C@H]2C(C)(COC(=O)c3cccs3)O[C@@H]3O[C@@]4(C)CC[C@@H]1[C@]32OO4 (stereo partly drawn) | 0.0048 µM | 0.0059 µM | > 100 µM | 11.5 µM | > 100 µM | 9.93 µM | 9 | – | 10 | 30 | 30 | 30 | 30 | 30 | 30
COc1ccc2nc3cc(Cl)ccc3c(NCCCN(C)CCO[C@H]3O[C@@H]4O[C@@]5(C)CC[C@H]6[C@H](C)CC[C@@H]([C@H]3C)[C@@]46OO5)c2c1 | 0.0122 µM | 0.0385 µM | 1.2 µM | 0.37 µM | 0.17 µM | 0.23 µM | 3 | 7 | 5 | – | – | – | – | – | –
C[C@@H]1CC[C@H]2C(C)(CO)O[C@@H]3O[C@@]4(C)CC[C@@H]1[C@]32OO4 (stereo partly drawn) | 0.0041 µM | 0.0074 µM | > 100 µM | > 100 µM | > 100 µM | > 100 µM | 1 | – | 1 | – | – | – | – | – | –
COc1ccc2nc3cc(Cl)ccc3c(N3CCNCC3)c2c1 | 1.49 µM | 1.67 µM | 3.4 µM | 3.26 µM | 3.21 µM | 3.52 µM | 1 | 1.1 | 1 | – | – | – | – | – | –
CCCC(=O)OCC1(C)O[C@@H]2O[C@@]3(C)CC[C@H]4[C@H](C)CC[C@@H]1[C@@]24OO3 (stereo partly drawn) | 0.0169 µM | 0.0069 µM | > 100 µM | 12.4 µM | 45 µM | 11.9 µM | 8 | > 2 | 8 | – | – | – | – | – | –
CC(=O)OCC1(C)O[C@@H]2O[C@@]3(C)CC[C@H]4[C@H](C)CC[C@@H]1[C@@]24OO3 (stereo partly drawn) | 0.0112 µM | 0.0126 µM | > 100 µM | 85.2 µM | > 100 µM | 42.1 µM | 1 | – | 2 | – | – | – | – | – | –
C[C@H]1[C@H](OC(=O)CCC(=O)O)O[C@@H]2O[C@@]3(C)CC[C@H]4[C@H](C)CC[C@@H]1[C@@]24OO3 [SODIUM ARESUNATE] | 0.008 µM | – | > 100 µM | 63.1 µM | 80.2 µM | 61.2 µM | 1.6 | 1 | 1.6 | – | – | – | – | – | –
COc1ccc2nc3cc(Cl)ccc3c(NCCNCCO[C@H]3O[C@@H]4O[C@@]5(C)CC[C@H]6[C@H](C)CC[C@@H]([C@H]3C)[C@@]46OO5)c2c1 | 0.0026 µM | 0.0353 µM | 1.6 µM | 0.38 µM | 0.32 µM | 0.29 µM | 4 | 5 | 6 | – | – | – | – | – | –
C[C@@H]1CC[C@H]2C(C)(COC(=O)[C@H]3CCCN3C(=O)C(F)(F)F)O[C@@H]3O[C@@]4(C)CC[C@@H]1[C@]32OO4 (stereo partly drawn) | 0.0079 µM | 0.0078 µM | > 100 µM | 9.29 µM | 37.6 µM | 15.6 µM | 11 | 3 | 4 | – | – | – | – | – | –
CNCCCNc1c2ccc(Cl)cc2nc2ccc(OC)cc12 | 0.0091 µM | 0.117 µM | 0.5 µM | 3.7 µM | 3.33 µM | 1.43 µM | 0.1 | 0.2 | 0.4 | – | – | – | – | – | –
C[C@@H]1CC[C@H]2C(C)(COC(=O)CCc3ccccc3)O[C@@H]3O[C@@]4(C)CC[C@@H]1[C@]32OO4 (stereo partly drawn) | 0.0074 µM | 0.0115 µM | > 100 µM | 24.4 µM | 24.6 µM | 6.36 µM | 4 | > 4 | 16 | – | – | – | – | – | –
C[C@H]1[C@@H](O)O[C@@H]2O[C@@]3(C)CC[C@H]4[C@H](C)CC[C@@H]1[C@@]24OO3 [ARTENIMOL] | 0.0022 µM | 0.0012 µM | > 100 µM | 27 µM | 31.2 µM | 42.6 µM | 4 | 3 | 2 | – | – | – | – | – | –
COc1ccc2nc3cc(Cl)ccc3c(N3CCNC(C)C3)c2c1 (stereo not drawn) | 0.158 µM | 0.384 µM | 5.6 µM | 4.16 µM | 3.54 µM | 3.47 µM | 1.4 | 1.6 | 1.6 | – | – | – | – | – | –
C[C@@H]1CC[C@H]2C(C)(COC(=O)c3ccc([N+](=O)[O-])cc3)O[C@@H]3O[C@@]4(C)CC[C@@H]1[C@]32OO4 (stereo partly drawn) | 0.0067 µM | 0.0026 µM | > 100 µM | 5.15 µM | 4.26 µM | 5.71 µM | 19 | > 24 | 18 | – | – | – | – | – | –
CO[C@H]1O[C@@H]2O[C@@]3(C)CC[C@H]4[C@H](C)CC[C@@H]([C@H]1C)[C@@]24OO3 | – | – | > 100 µM | 42.3 µM | 90.9 µM | 22.5 µM | 2 | 1 | 4 | – | – | – | – | – | –
CCCCCC(=O)OCC1(C)O[C@@H]2O[C@@]3(C)CC[C@H]4[C@H](C)CC[C@@H]1[C@@]24OO3 (stereo partly drawn) | 0.0601 µM | 0.0432 µM | > 100 µM | 25.5 µM | 23 µM | 13.9 µM | 4 | > 4 | 7 | – | – | – | – | – | –
C[C@@H]1CC[C@H]2C(C)(COC(=O)c3ccc(F)cc3)O[C@@H]3O[C@@]4(C)CC[C@@H]1[C@]32OO4 (stereo partly drawn) | 0.0037 µM | 0.0044 µM | > 100 µM | 10.1 µM | 8.11 µM | 7.57 µM | 10 | > 12 | 13 | – | – | – | – | – | –
C[C@@H]1CC[C@H]2C(C)(COC(=O)c3cc4ccccc4o3)O[C@@H]3O[C@@]4(C)CC[C@@H]1[C@]32OO4 (stereo partly drawn) | 0.0146 µM | 0.0071 µM | > 100 µM | 13.5 µM | 10.3 µM | 11.2 µM | 7 | > 10 | 9 | – | – | – | – | – | –
